Data reported in patent publication US12268690B2, “Treatments for mutations in acute myeloid leukemia” (OREGON HEALTH & SCIENCE UNIVERSITY, priority 2018, dated 2025).

Test system: freshly isolated mononuclear cells from AML samples
Assay: Ex vivo functional drug screen (MTS viability, AUC) on primary AML samples, compared by mutation or clinical group
Assay type: cell-based, human
Source text: This panel contained graded concentrations of a drugs with activity against two-thirds of the tyrosine kinome as well as other non-tyrosine kinase pathways, including MAPKs, PI3K/AKT/mTOR, AMPK, ATM, Aurora kinases, CAMKs, CDKs, GSK3a/b, IκK, PKA, PKC, PLK1, and RAF. In addition, the library contained small molecule inhibitors with activity against the BCL2 family, BRD4, Hedgehog, HSP90, NOTCH/gamma-secretase, proteasome, survivin, STAT3, and WNT/beta-catenin. Drug sensitivity patterns were analyzed with respect to clinical and genetic features of tumors. We compared the average area-under-the curve (AUC) values for each drug between the de novo and transformed samples via a series of single factor ANOVAs. […] In addition, we analyzed the concordance of drug sensitivity patterns with respect to predicted target gene, gene family, or pathway for each drug. […] To create a global view of overall sensitivity or resistance of each case, we generated a heatmap of binary sensitive/resistant calls for each sample to each drug.
Correlation of drug sensitivity with mutational events was performed by assessing the range of sensitivity of cases with mutation of an individual gene (as well as co-occurring mutational events) versus cases with wild type sequence for that same gene. […] The difference in average drug sensitivity of mutant versus wild type cases for each drug/mutation pair was plotted on the horizontal axis of a volcano plot with a test for statistical significance of the comparison plotted on the vertical axis (corrected for multiple comparison false discovery rate^42; FIG. 4). […] To aid in discovery of potential mutational biomarkers of drug sensitivity, we plotted volcano plots that were specific to each individual drug (versus all possible mutational events) and for each individual gene (versus all possible drugs tested).
Ex vivo drug screens were performed on freshly isolated mononuclear cells from AML samples as previously described^41.
Ex vivo functional drug screens were performed on freshly isolated mononuclear cells from AML samples. […] Drug plates were created using inhibitors purchased from LC Laboratories and Selleck Chemicals and master stocks were reconstituted in DMSO and stored at −80° C. […] DMSO control wells and positive control wells containing a drug combination of Flavopiridol, Staurosporine and Velcade were placed on each plate, with the final concentration of DMSO ≤0.1% in all wells. Daughter plates were created using a V&P Scientific 384-well pin tool head operated by the Caliper Sciclone ALH 3000 and equipped with 0.457 mm diameter, 30 nanoliter, slotted stainless steel pins (cat num: FP1NS30). Daughter and destination plates were sealed with pealable thermal seals using a PlateLoc thermal sealer. Destination plates were stored at −20° C. for no more than three months and thawed immediately before use. Primary mononuclear cells were plated across single-agent inhibitor panels within 24 h of collection. […] After 3 d of culture at 37° C. in 5% CO2, MTS reagent (CellTiter96 AQueous One; Promega) was added, optical density was measured at 490 nm, and raw absorbance values were adjusted to a reference blank value and then used to determine cell viability (normalized to untreated control wells).
A given sample was run on one or more panels and within each panel, the majority of drugs were run without within-panel replicates. […] An additional set of ‘curve-free’ AUCs was computed for sample-inhibitor pairs run on multiple panels.
Based on the methodology used in our prior drug combination study^36, a probit regression was fit to all possible run groups using the model: (normalized_viability/100)˜1+log 10(concentration) Where for all groups there were N=7 dose-response measurements. The summary measures of curve fit were inspected and cutoffs were devised removing all runs with an AIC >12 and deviance >2.

SMILES: COc1cc2ncnc(Nc3ccc(F)c(Cl)c3)c2cc1OCCCN1CCOCC1 [Gefitinib]
- drug sensitivity mutant vs wild type (average difference in AUC; top left quadrant of volcano plot) (FLT3_ITD): gefitinib
- drug sensitivity mutant vs wild type (average difference in AUC; top left quadrant of volcano plot) (FLT3_ITD:SRSF2): Gefitinib
- drug sensitivity mutant vs wild type (average difference in AUC; top left quadrant of volcano plot) (FLT3_ITD_IHD2): gefitinib
- drug sensitivity mutant vs wild type (average difference in AUC; top left quadrant of volcano plot) (NPM1): Gefitinib
- drug sensitivity mutant vs wild type (average difference in AUC; top left quadrant of volcano plot) (NPM1:DNMT3A): Gefitinib
- drug sensitivity mutant vs wild type (average difference in AUC; top left quadrant of volcano plot) (NPM1:FLT3_ITD): gefitinib
- drug sensitivity mutant vs wild type (average difference in AUC; top left quadrant of volcano plot) (NPM1:FLT3_ITD:DNMT3A): gefitinib
- drug sensitivity mutant vs wild type (average difference in AUC; top left quadrant of volcano plot) (NPM1:IDH2): gefitinib
- drug sensitivity mutant vs wild type (average difference in AUC; top left quadrant of volcano plot) (NPM1:SRSF2): gefitinib

SMILES: c1cn2cc(-c3ccc4cn[nH]c4c3)nc(Nc3ccc(N4CCOCC4)cc3)c2n1 [Entospletinib, 6-(1H-indazol-6-yl)-N-(4-morpholin-4-ylphenyl)imidazo[1,2-a]pyrazin-8-amine]
- drug sensitivity mutant vs wild type (average difference in AUC; top left quadrant of volcano plot) (DNMT3A): Entospletinib
- drug sensitivity mutant vs wild type (average difference in AUC; top left quadrant of volcano plot) (DNMT3A:IDH2): Entospletinib (GS-9973)
- drug sensitivity mutant vs wild type (average difference in AUC; top left quadrant of volcano plot) (IDH2): Entospletinib
- drug sensitivity mutant vs wild type (average difference in AUC; top left quadrant of volcano plot) (NPM1): Entospletinib
- drug sensitivity mutant vs wild type (average difference in AUC; top left quadrant of volcano plot) (NPM1:DNMT3A): Entospletinib
- drug sensitivity mutant vs wild type (average difference in AUC; top left quadrant of volcano plot) (NPM1:IDH1): entospletinib
- drug sensitivity mutant vs wild type (average difference in AUC; top left quadrant of volcano plot) (NPM1:IDH2): entospetinib
- drug sensitivity mutant vs wild type (average difference in AUC; top left quadrant of volcano plot) (NPM1:SRSF2): entospetinib
- drug sensitivity mutant vs wild type (average difference in AUC; top left quadrant of volcano plot) (NPM1:TET2: DNMT3A): Entospetinib
- pattern of drug sensitivity (cases with FLT3-ITD and NPM1): similarly significant pattern of sensitivity

SMILES: CC(C)(C)c1cnc(CSc2cnc(NC(=O)C3CCNCC3)s2)o1 [SNS-032]
- drug sensitivity mutant vs wild type (average difference in AUC; top left quadrant of volcano plot) (ASXL1): SNS-032 (BMS-387032)
- drug sensitivity mutant vs wild type (average difference in AUC; top left quadrant of volcano plot) (NPM1): SNS-032

SMILES: CCCS(=O)(=O)Nc1ccc(F)c(C(=O)c2c[nH]c3ncc(Cl)cc23)c1F [PLX-4720, N-(3-(5-chloro-1H-pyrrolo[2,3-b]pyridine-3-carbonyl)-2,4-difluorophenyl)propane-1-sulfonamide]
- drug sensitivity mutant vs wild type (average difference in AUC; top left quadrant of volcano plot) (CBFB.MYH11): PLX-4720

SMILES: CS(=O)(=O)c1ccc(C(=O)Nc2ccc(Cl)c(-c3ccccn3)c2)c(Cl)c1 [Vismodegib]
- drug sensitivity mutant vs wild type (average difference in AUC; top left quadrant of volcano plot) (WT1): Vismodegib

SMILES: CNC(=O)c1c(F)cccc1Nc1nc(Nc2cc3c(cc2OC)CCN3C(=O)CN(C)C)nc2[nH]ccc12 [GSK-1838705A]
- drug sensitivity mutant vs wild type (average difference in AUC; top left quadrant of volcano plot) (IDH2): GSK-1838705A
- drug sensitivity mutant vs wild type (average difference in AUC; top left quadrant of volcano plot) (NPM1:IDH2): GSK-1838705A
- drug sensitivity mutant vs wild type (average difference in AUC; top left quadrant of volcano plot) (NPM1:SRSF2): GSK-183705A
- drug sensitivity mutant vs wild type (average difference in AUC; top left quadrant of volcano plot) (SMC1A): GSK-1838705A
- drug sensitivity mutant vs wild type (average difference in AUC; top left quadrant of volcano plot) (SRSF2:IDH2): GSK-1838705A

SMILES: CC(C)(C)c1ccc(S(=O)(=O)/C=C/C#N)cc1 [Bay 11-7085]
- drug sensitivity mutant vs wild type (average difference in AUC; top left quadrant of volcano plot) (SMC1A): Bay 11-

SMILES: NC1(c2ccc(-c3nc4ccn5c(=O)[nH]nc5c4cc3-c3ccccc3)cc2)CCC1 [MK-2206]
- drug sensitivity mutant vs wild type (average difference in AUC; top left quadrant of volcano plot) (WT1): MK-2206

SMILES: O=C(NOCC1CC1)c1ccc(F)c(F)c1Nc1ccc(I)cc1Cl [CI-1040]
- drug sensitivity mutant vs wild type (average difference in AUC; top left quadrant of volcano plot) (DNMT3A:NRAS): CI-1040 (PD184352)
- drug sensitivity mutant vs wild type (average difference in AUC; top left quadrant of volcano plot) (NPM1:DNMT3A:NRAS): CI-1040
- drug sensitivity mutant vs wild type (average difference in AUC; top left quadrant of volcano plot) (NPM1:NRAS): CI-1040 (PD184352)
- drug sensitivity mutant vs wild type (average difference in AUC; top left quadrant of volcano plot) (NRAS): CI-1040

SMILES: Cn1cc(-c2ccc3nnc(Sc4ccc5ncccc5c4)n3n2)cn1 [SGX-523, 6-((6-(1-methyl-1H-pyrazol-4-yl)-[1,2,4]triazolo[4,3-b]pyridazin-3-yl)thio)quinoline]
- drug sensitivity mutant vs wild type (average difference in AUC; top left quadrant of volcano plot) (NPM1:CEBPA): SGX-523
- drug sensitivity mutant vs wild type (average difference in AUC; top left quadrant of volcano plot) (NPM1:IDH2): SGX-523
- drug sensitivity mutant vs wild type (average difference in AUC; top left quadrant of volcano plot) (NPM1:SRSF2): SGX-523
- drug sensitivity mutant vs wild type (average difference in AUC; top left quadrant of volcano plot) (NPM1:SRSF2:IDH2): SGX-523

SMILES: NC(=O)c1cnc(N[C@@H]2CCCC[C@@H]2N)nc1Nc1cccc(-n2nccn2)c1 [PRT062607]
- drug sensitivity mutant vs wild type (average difference in AUC; top left quadrant of volcano plot) (NPM1:DNMT3A): PRT062607

SMILES: Cc1[nH]c(/C=C2\C(=O)Nc3ccc(S(=O)(=O)Cc4c(Cl)cccc4Cl)cc32)c(C)c1C(=O)N1CCC[C@@H]1CN1CCCC1 [PHA-665752]
- drug sensitivity mutant vs wild type (average difference in AUC; top left quadrant of volcano plot) (IDH2): PHA-665752

SMILES: C#Cc1cccc(Nc2ncnc3cc(OCCOC)c(OCCOC)cc23)c1 [erlotinib]
- drug sensitivity mutant vs wild type (average difference in AUC; top left quadrant of volcano plot) (FLT3_ITD:DNMT3A): erlotinib
- drug sensitivity mutant vs wild type (average difference in AUC; top left quadrant of volcano plot) (NPM1): erlotinib
- drug sensitivity mutant vs wild type (average difference in AUC; top left quadrant of volcano plot) (NPM1:FLT3_ITD:DNMT3A): erlotinib
- drug sensitivity mutant vs wild type (average difference in AUC; top left quadrant of volcano plot) (NPM1:FLT3_ITD:TET2): erlotinib
- drug sensitivity mutant vs wild type (average difference in AUC; top left quadrant of volcano plot) (NPM1:IDH1): erlotinib
- drug sensitivity mutant vs wild type (average difference in AUC; top left quadrant of volcano plot) (NPM1:IDH2): erlotinib
- drug sensitivity mutant vs wild type (average difference in AUC; top left quadrant of volcano plot) (NPM1:SRSF2): erlotinib

SMILES: CN(NC(=O)CC(=O)NN(C)C(=S)c1ccccc1)C(=S)c1ccccc1 [elesclemol]
- drug sensitivity of mutant cases (TP53 mutant cases): trended more sensitive

SMILES: Nc1nc(Nc2ccc(S(N)(=O)=O)cc2)nn1C(=O)c1c(F)cccc1F [JNJ-7706621, 4-((5-amino-1-(2,6-difluorobenzoyl)-1H-1,2,4-triazol-3-yl)amino)benzenesulfonamide]
- drug sensitivity mutant vs wild type (average difference in AUC; top left quadrant of volcano plot) (NPM1:DNMT3A): JNJ-7706621
- drug sensitivity mutant vs wild type (average difference in AUC; top left quadrant of volcano plot) (NPM1:IDH1): JNJ-7706621

SMILES: CC1(COc2ccc3c(c2)ncn3-c2ccc3cccc(N4CCC(N)CC4)c3n2)COC1 [Crenolanib]
- drug sensitivity mutant vs wild type (average difference in AUC; top left quadrant of volcano plot) (CBFB.MYH11): Crenolanib
- drug sensitivity mutant vs wild type (average difference in AUC; top left quadrant of volcano plot) (DNMT3A:FLT3): Crenolanib
- drug sensitivity mutant vs wild type (average difference in AUC; top left quadrant of volcano plot) (NPM1): crenolanib
- drug sensitivity mutant vs wild type (average difference in AUC; top left quadrant of volcano plot) (NPM1:DNMT3A): Crenolanib

SMILES: CS(=O)(=O)CCNCc1ccc(-c2ccc3ncnc(Nc4ccc(OCc5cccc(F)c5)c(Cl)c4)c3c2)o1 [Lapatinib]
- drug sensitivity mutant vs wild type (average difference in AUC; top left quadrant of volcano plot) (FLT3_ITD_IHD2): lapitinib
- drug sensitivity mutant vs wild type (average difference in AUC; top left quadrant of volcano plot) (NPM1): Lapatinib
- drug sensitivity mutant vs wild type (average difference in AUC; top left quadrant of volcano plot) (NPM1:FLT3_ITD): lapatinib
- drug sensitivity mutant vs wild type (average difference in AUC; top left quadrant of volcano plot) (NPM1:IDH2): Lapatinib
- drug sensitivity mutant vs wild type (average difference in AUC; top left quadrant of volcano plot) (NPM1:SRSF2): Lapatinib
- drug sensitivity mutant vs wild type (average difference in AUC; top left quadrant of volcano plot) (SMC1A): lapatinib

SMILES: Cn1cc(-c2ccc3nnc(C(F)(F)c4ccc5ncccc5c4)n3n2)cn1 [JNJ-38877605]
- drug sensitivity mutant vs wild type (average difference in AUC; top left quadrant of volcano plot) (BCOR:RUNX1): JNJ-38877605

SMILES: COc1cc2c(Oc3ccc4[nH]c(C)cc4c3F)ncnc2cc1OCCCN1CCCC1 [Cediranib]
- drug sensitivity mutant vs wild type (average difference in AUC; top left quadrant of volcano plot) (FLT3_ITD:RUNX1): cediranib
- drug sensitivity mutant vs wild type (average difference in AUC; top left quadrant of volcano plot) (RUNX1): Cediranib
- drug sensitivity mutant vs wild type (average difference in AUC; top left quadrant of volcano plot) (U2AF1): Cediranib (AZD2171)
- correlation of mutation with drug sensitivity (mutation of RUNX1): correlated with sensitivity

SMILES: CCOc1cc2ncc(C#N)c(Nc3ccc(F)c(Cl)c3)c2cc1NC(=O)/C=C/CN(C)C [Pelitinib]
- drug sensitivity mutant vs wild type (average difference in AUC; top left quadrant of volcano plot) (FLT3_ITD): pelitinib
- drug sensitivity mutant vs wild type (average difference in AUC; top left quadrant of volcano plot) (NPM1): Pelitinib
- drug sensitivity mutant vs wild type (average difference in AUC; top left quadrant of volcano plot) (NPM1:FLT3_ITD): pelitinib
